Results on 2 compounds are retold here after PMC8579695, “The Stringent Response Inhibits 70S Ribosome Formation in Staphylococcus aureus by Impeding GTPase-Ribosome Interactions” (mBio, 2021).

Experiment [1] concerns RA-GTPases RsgA, RbgA, Era, and HflX. The experiment in a line: Hydrolysis of pppGpp by the RA-GTPases. In kind it is biochemical, Staphylococcus aureus. The text has this:
It is well characterized that rRNA transcription decreases during the stringent response ([39]). In addition, the GTPase activity of ribosome assembly cofactors is inhibited by (p)ppGpp, both of which contribute to a reduction in mature ribosomes within the cell ([27]). To examine mechanistically how (p)ppGpp-GTPase interactions affect the ability of RA-GTPases to associate with ribosomal subunits, we examined the association of each GTPase to either the 30S or 50S ribosomal subunit in the presence of GDP, GTP, ppGpp, and pppGpp, as well as GMPPNP, a nonhydrolyzable analogue of GTP. […] His-tagged GTPases were preincubated with highly pure, salt-washed 70S S. aureus ribosomes in a low-magnesium buffer to encourage ribosomal subunit dissociation, and the amount of each GTPase associated with each of the subunits was quantified by Western immunoblotting with anti-His antibodies after sucrose gradient separation. […]
GTPase activity assays were performed as previously described ([10]). […] The radioactive spots were exposed to a BAS-MS imaging plate (Fujifilm) and visualized using an LA 7000 Typhoon PhosphorImager (GE Healthcare), and images were quantified using ImageQuant (GE Healthcare).

Experiment [2] relates to HflX binding to 50S ribosomes. The experiment is described as follows: Stopped-flow fluorescence kinetics of HflX-Atto488 association to 50S subunits. Details: species or system Staphylococcus aureus. As for the experimental part:
FIG 3 Stopped-flow kinetic parameters of RA-GTPase association to the ribosomal subunits. (A) Schematic representation of the experimental setup for stopped-flow analysis. Nucleotides (brown circles), 50S subunits (orange oval), and Atto488-labeled RA-GTPases (purple hexagon) are indicated. Arrows indicate the direction of syringe movement. Atto-488 was excited using a 470-nm LED, and fluorescence was detected through a 515-nm long-pass filter. (B and C) Fluorescent change upon mixing 0.2 μM RbgA-Atto488 (B) or HflX-Atto488 (C) with 0.2 μM 50S ribosomal subunits in the presence of 100 μM GTP, ppGpp, and pppGpp or in the apo state using the stopped-flow fluorescence apparatus. Fluorescently labeled protein was also mixed with buffer lacking 50S subunits as a mixing control. Fluorescence of the reaction was tracked using exponential sampling for 10 s, and each curve represents the mean average of at least five technical replicates. (D) kapp1 dependence on 50S concentration for HflX complexed with GTP (green), ppGpp (pink), and pppGpp (black). (E) Same as for panel D for the kapp2 dependence. (F and G) Sum and product analyses of apparent rates during HflX association to the 50S subunit. HflX-Atto488 (0.05 μM) was mixed with increasing titrations of 50S ribosomal subunits over the fluorescently labeled protein in the presence of 20 μM GTP or ppGpp. The resultant traces (see Fig. S4) were analyzed by nonlinear regression using two exponential terms. The sum (F) and product (G) of apparent rates (kapp1 [D] and kapp2 [E]) were plotted as a function of the total concentration of the 50S subunits and HflX protein to determine the microscopic constants k1, k-1, k2, and k-2 (Table 2) and the resulting dissociation constant (Kd) (see Materials and Methods). Error bars represent the standard deviations of the apparent rates of four or more individual traces (D and E) or the standard errors of the two-step analysis (F and G).
Next, we used a constant concentration of protein in the presence of 200-fold excess of each nucleotide and titrated it with increasing concentrations of ribosomal subunits (see Fig. S4). […]
For initial controls, 0.2 μM Atto-488-labeled proteins were rapidly mixed with 0.2 μM E. coli 50S ribosomal subunits (purified as described elsewhere) in TAKM7 buffer (25 mM Tris-HCl [pH 7.4], 70 mM ammonium acetate, 30 mM KCl, 7 mM MgCl2) using an SX20 stopped-flow apparatus (Applied Photophysics) in the presence or absence of GTP, ppGpp, and pppGpp. […] Atto-488 was excited using a 470-nm LED and fluorescence was detected through a 515-nm long-pass filter. Reactions were monitored for 10 s, with 1,000 total data points per reaction. Each condition was subject to at least five technical repeats, with curves representing the mean average fluorescence of the technical repeats. […]

Each structure is given as a SMILES string.

Regarding `Nc1nc2c(ncn2[C@@H]2O[C@H](COP(=O)(O)OP(=O)(O)OP(=O)(O)O)[C@@H](OP(=O)(O)OP(=O)(O)O)[C@H]2O)c(=O)[nH]1` [pppGpp], the “hydrolysis of pppGpp by the four RA-GTPases” value in experiment [1] was “unable to hydrolyze”. For `Nc1nc2c(ncn2[C@@H]2O[C@H](COP(=O)(O)OP(=O)(O)O)[C@@H](OP(=O)(O)OP(=O)(O)O)[C@H]2O)c(=O)[nH]1` [ppGpp], the “reduction of the second, slow-phase reaction of HflX relative to GTP-bound” value in experiment [2] was found to be 4 fold. Besides, the “kapp2 of HflX association to 50S” value in experiment [2] (GTP: hyperbolic, plateau, ppGpp: independent of 50S concentration) stood at 1.0 s⁻¹.
